# Measured values as given in ChEMBL document CHEMBL6127020, “Discovery of aminopiperidine based potent & novel topoisomerase inhibitor with broad spectrum anti-bacterial activity” (Bioorg Med Chem Lett, 2024).
# How the values were obtained:
# Escherichia coli [1] = test: Antibacterial activity against Escherichia coli ATCC 25922 assessed as inhibition of bacterial growth; format: functional
# Staphylococcus aureus [2] = test: Antibacterial activity against Staphylococcus aureus ATCC 29213 assessed as inhibition of bacterial growth; format: functional
# Staphylococcus aureus [3] = test: Antibacterial activity against methicillin resistant Staphylococcus aureus assessed as inhibition of bacterial growth; format: functional
# [4] = Volume of distribution at steady state in C57 mouse at 1 mg/kg,iv administration; format: ADME, organism-based; details: in vivo, read-out: Vdss
# Enterococcus faecalis [5] = test: Antibacterial activity against Enterococcus faecalis assessed as inhibition of bacterial growth; format: functional
# [6] = Half life in C57 mouse at 1 mg/kg,iv administration; format: ADME, organism-based; details: in vivo
# Streptococcus pyogenes = test: Antibacterial activity against Streptococcus pyogenes assessed as inhibition of bacterial growth; format: functional
# [7] = Plasma protein binding in human; format: ADME, cell-free; details: read-out: PPB (converted)
# Topoisomerase IV = Topoisomerase IV (Staphylococcus aureus, UniProt P0C1S7+P0C1U9); test: Inhibition of Staphylococcus aureus DNA topoisomerase 4; format: protein-complex assay
# Sequence of Topoisomerase IV (P0C1U9 whole entry): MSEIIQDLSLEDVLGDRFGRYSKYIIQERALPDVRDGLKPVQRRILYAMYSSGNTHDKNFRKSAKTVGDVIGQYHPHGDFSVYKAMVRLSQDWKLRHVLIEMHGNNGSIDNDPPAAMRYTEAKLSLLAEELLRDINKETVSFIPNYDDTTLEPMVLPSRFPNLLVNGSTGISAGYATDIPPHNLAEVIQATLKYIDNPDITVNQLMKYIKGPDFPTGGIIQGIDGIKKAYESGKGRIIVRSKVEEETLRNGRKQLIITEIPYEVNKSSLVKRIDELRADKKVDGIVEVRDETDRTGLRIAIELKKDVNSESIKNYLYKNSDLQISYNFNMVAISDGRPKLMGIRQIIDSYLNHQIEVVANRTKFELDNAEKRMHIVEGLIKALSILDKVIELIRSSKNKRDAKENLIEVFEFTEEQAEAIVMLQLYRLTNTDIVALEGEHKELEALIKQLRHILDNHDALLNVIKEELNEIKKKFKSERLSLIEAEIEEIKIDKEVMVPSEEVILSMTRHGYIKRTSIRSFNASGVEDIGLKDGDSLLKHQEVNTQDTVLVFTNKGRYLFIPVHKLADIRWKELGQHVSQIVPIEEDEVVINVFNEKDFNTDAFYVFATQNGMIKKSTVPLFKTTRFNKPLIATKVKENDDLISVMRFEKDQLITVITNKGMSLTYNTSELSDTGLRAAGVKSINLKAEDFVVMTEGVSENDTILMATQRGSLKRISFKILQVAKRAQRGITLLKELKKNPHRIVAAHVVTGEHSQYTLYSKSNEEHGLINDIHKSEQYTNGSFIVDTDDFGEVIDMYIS
# Sequence of Topoisomerase IV (P0C1S7 whole entry): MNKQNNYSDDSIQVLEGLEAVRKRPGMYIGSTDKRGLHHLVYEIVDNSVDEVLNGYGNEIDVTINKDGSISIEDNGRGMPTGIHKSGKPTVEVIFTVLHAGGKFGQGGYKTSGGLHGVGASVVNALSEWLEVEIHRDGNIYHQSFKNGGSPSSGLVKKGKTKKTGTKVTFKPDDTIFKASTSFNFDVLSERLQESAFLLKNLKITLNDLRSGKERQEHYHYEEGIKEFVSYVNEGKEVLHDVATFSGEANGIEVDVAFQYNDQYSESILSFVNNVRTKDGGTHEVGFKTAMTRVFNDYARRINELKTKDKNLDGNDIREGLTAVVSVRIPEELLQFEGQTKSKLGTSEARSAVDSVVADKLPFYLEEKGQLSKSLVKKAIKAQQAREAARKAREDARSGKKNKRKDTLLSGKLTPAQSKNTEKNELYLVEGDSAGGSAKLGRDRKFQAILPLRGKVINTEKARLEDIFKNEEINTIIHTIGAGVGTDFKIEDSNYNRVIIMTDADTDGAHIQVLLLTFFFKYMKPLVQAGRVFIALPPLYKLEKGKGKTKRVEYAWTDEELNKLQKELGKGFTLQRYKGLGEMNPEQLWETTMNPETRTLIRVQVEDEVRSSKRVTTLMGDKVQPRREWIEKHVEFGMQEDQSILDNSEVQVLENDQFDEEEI
# Cytochrome P450 2C8 = target: T1, Cytochrome P450 2C8 (Homo sapiens, UniProt P10632); test: Inhibition of CYP2C8 (unknown origin) at 10 uM; format: ADME
# T1 sequence (P10632 whole entry): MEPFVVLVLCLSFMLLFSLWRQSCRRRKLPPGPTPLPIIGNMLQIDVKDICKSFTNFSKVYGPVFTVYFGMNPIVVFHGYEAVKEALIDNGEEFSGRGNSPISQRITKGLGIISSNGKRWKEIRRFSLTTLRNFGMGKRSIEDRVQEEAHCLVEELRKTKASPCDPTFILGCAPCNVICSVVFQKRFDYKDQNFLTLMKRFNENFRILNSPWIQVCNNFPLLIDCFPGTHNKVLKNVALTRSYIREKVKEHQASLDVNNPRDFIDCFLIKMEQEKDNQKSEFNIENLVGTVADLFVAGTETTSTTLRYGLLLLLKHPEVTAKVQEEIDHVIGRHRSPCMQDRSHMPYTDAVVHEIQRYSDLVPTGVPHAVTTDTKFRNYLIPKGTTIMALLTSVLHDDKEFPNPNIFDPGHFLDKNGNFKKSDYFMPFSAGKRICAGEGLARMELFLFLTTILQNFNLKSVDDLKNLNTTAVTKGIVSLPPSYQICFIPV
# Streptococcus pneumoniae = test: Antibacterial activity against Streptococcus pneumoniae assessed as inhibition of bacterial growth; format: functional
# [8] = Aqueous solubility of compound; format: physicochemical
# Haemophilus influenzae = test: Antibacterial activity against Haemophilus influenzae assessed as inhibition of bacterial growth; format: functional
# Cytochrome P450 2D6 = Cytochrome P450 2D6 (Homo sapiens, UniProt P10635); test: Inhibition of CYP2D6 (unknown origin) at 10 uM; format: ADME
# Sequence of Cytochrome P450 2D6 (P10635 whole entry): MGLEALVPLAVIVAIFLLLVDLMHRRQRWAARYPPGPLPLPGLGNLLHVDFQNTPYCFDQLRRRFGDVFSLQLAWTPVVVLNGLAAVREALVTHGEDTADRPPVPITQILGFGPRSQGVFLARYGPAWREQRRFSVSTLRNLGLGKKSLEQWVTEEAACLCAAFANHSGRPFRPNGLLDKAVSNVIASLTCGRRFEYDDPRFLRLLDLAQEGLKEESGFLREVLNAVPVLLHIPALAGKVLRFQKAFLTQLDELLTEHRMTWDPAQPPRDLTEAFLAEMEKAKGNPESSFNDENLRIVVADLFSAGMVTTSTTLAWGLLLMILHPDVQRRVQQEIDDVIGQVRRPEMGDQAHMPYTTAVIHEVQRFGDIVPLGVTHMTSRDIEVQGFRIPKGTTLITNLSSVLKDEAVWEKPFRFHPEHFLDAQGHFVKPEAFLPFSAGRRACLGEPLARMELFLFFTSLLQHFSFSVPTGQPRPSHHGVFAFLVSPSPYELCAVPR
# [9] = Tmax in C57 mouse at 3 mg/kg,po administration; format: ADME, organism-based; details: in vivo
# Cytochrome P450 3A4 = Cytochrome P450 3A4 (Homo sapiens, UniProt P08684); test: Inhibition of CYP3A4 (unknown origin) at 10 uM; format: ADME
# Sequence of Cytochrome P450 3A4 (P08684 whole entry): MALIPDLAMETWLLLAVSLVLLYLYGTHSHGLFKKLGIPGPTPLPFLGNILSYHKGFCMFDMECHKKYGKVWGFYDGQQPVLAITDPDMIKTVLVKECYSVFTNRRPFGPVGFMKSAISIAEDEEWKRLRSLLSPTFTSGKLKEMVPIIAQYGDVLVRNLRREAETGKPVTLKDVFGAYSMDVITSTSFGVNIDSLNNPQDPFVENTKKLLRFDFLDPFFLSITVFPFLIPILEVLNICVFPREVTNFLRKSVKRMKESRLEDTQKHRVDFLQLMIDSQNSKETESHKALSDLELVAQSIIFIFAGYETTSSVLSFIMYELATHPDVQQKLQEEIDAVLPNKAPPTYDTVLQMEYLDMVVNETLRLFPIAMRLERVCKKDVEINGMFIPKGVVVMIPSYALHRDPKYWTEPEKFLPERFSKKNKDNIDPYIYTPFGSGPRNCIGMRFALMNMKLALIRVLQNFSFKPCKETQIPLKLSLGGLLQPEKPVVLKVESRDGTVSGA
# Enterococcus faecalis [10] = test: Antibacterial activity against vancomycin-resistant Enterococcus faecalis assessed as inhibition of bacterial growth; format: functional
# Salmonella enterica = test: Antibacterial activity against Salmonella enterica assessed as inhibition of bacterial growth; format: functional
# Klebsiella pneumoniae = test: Antibacterial activity against Klebsiella pneumoniae assessed as inhibition of bacterial growth; format: functional
# [11] = Clearance in C57 mouse at 1 mg/kg,iv administration; format: ADME, organism-based; details: in vivo
# [12] = AUC (0 to t) in C57 mouse at 1 mg/kg,iv administration; format: ADME, organism-based; details: in vivo
# [13] = AUC (0 to t) in C57 mouse at 3 mg/kg,po administration; format: ADME, organism-based; details: in vivo
# Helicobacter pylori = test: Antibacterial activity against Helicobacter pylori assessed as inhibition of bacterial growth; format: functional
# Acinetobacter baumannii = test: Antibacterial activity against Acinetobacter baumannii assessed as inhibition of bacterial growth; format: functional
# [14] = MRT in C57 mouse at 1 mg/kg,iv administration; format: ADME, organism-based; details: in vivo
# DNA gyrase = DNA gyrase (Staphylococcus aureus, UniProt P0A0K8+P20831); test: Inhibition of Staphylococcus aureus DNA gyrase; format: protein-complex assay
# Sequence of DNA gyrase (P0A0K8 whole entry): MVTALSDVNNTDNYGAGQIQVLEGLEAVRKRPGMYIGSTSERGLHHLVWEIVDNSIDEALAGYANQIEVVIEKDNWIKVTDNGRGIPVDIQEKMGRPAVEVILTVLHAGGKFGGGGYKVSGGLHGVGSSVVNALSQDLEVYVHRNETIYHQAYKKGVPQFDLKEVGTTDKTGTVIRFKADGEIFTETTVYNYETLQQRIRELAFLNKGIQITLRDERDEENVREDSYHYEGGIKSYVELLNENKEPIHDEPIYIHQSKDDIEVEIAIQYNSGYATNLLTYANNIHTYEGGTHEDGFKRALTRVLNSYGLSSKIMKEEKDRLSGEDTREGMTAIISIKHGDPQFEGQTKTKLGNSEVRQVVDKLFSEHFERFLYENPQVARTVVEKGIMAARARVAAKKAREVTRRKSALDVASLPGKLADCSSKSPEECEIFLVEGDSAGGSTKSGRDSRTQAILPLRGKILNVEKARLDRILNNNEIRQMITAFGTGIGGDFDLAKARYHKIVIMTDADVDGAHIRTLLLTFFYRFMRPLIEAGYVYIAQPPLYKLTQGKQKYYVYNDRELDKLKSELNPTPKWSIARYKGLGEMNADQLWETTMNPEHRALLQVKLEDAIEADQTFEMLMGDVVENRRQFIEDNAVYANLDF
# Sequence of DNA gyrase (P20831 whole entry): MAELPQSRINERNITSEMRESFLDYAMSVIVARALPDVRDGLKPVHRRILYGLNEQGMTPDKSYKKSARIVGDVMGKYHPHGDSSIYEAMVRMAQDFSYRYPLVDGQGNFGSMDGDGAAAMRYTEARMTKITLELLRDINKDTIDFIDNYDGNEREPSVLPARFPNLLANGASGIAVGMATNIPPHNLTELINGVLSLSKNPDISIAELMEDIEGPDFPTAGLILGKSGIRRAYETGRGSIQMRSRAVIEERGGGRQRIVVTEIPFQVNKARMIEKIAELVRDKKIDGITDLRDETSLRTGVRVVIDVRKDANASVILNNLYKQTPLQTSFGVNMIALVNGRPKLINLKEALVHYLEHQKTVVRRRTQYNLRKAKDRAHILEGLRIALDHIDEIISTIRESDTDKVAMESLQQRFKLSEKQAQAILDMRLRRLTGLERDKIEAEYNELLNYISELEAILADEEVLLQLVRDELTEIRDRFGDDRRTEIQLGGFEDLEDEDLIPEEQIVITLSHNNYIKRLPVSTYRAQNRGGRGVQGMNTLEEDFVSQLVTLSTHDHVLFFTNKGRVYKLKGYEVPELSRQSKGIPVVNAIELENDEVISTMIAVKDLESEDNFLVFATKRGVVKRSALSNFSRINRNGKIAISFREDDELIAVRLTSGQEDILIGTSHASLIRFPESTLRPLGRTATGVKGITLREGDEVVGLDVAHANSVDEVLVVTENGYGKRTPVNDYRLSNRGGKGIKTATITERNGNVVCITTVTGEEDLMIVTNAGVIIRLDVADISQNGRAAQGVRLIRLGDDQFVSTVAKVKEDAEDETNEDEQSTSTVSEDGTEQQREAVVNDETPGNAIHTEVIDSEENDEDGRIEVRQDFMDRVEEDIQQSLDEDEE
# Staphylococcus aureus [15] = test: Antibacterial activity against Staphylococcus aureus assessed as inhibition of bacterial growth; format: functional
# Escherichia coli [16] = test: Antibacterial activity against Escherichia coli assessed as inhibition of bacterial growth; format: functional
# [17] = C0 in C57 mouse at 1 mg/kg,iv administration; format: ADME, organism-based; details: in vivo
# Shigella flexneri = test: Antibacterial activity against Shigella flexneri assessed as inhibition of bacterial growth; format: functional
# [18] = Bioavailability in C57 mouse at 1 mg/kg,iv administration; format: ADME, organism-based; details: in vivo
# Cytochrome P450 1A2 = target: T2, Cytochrome P450 1A2 (Homo sapiens, UniProt P05177); test: Inhibition of CYP1A2 (unknown origin) at 10 uM; format: ADME
# T2 sequence (P05177 whole entry): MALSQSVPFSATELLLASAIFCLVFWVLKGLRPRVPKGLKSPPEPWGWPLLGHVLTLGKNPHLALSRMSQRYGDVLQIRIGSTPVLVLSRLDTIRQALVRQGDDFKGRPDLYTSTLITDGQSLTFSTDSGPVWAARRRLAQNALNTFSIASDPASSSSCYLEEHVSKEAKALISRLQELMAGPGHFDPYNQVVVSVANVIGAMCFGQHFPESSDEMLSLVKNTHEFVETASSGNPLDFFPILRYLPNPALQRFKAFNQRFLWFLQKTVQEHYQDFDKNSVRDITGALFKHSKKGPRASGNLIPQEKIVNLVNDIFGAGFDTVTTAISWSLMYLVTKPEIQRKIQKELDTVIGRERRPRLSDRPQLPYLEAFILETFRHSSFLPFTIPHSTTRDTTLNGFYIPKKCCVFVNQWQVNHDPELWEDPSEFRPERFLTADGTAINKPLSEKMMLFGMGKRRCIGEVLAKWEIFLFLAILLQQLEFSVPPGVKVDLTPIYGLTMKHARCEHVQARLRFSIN
# Cytochrome P450 2C19 = Cytochrome P450 2C19 (Homo sapiens, UniProt P33261); test: Inhibition of CYP2C19 (unknown origin) at 10 uM; format: ADME
# Sequence of Cytochrome P450 2C19 (P33261 whole entry): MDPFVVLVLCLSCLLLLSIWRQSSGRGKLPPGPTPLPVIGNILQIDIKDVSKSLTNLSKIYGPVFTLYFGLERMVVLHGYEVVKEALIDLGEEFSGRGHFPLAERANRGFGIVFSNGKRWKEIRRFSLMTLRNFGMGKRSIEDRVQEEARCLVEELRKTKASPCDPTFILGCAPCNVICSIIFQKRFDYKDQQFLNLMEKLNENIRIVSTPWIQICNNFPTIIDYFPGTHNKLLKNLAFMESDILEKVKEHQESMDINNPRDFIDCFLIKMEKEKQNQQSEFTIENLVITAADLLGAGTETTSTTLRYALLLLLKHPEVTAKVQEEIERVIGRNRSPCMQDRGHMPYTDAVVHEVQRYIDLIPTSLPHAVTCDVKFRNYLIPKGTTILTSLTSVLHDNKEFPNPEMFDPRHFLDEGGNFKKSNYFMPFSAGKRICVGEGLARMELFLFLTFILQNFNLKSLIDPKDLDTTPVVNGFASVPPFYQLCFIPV
# [19] = Solubility of compound in PBS; format: physicochemical
# Pseudomonas aeruginosa = test: Antibacterial activity against Pseudomonas aeruginosa assessed as inhibition of bacterial growth; format: functional
# [20] = Cmax in C57 mouse at 3 mg/kg,po administration; format: ADME, organism-based; details: in vivo
# Enterococcus faecium = test: Antibacterial activity against Enterococcus faecium assessed as inhibition of bacterial growth; format: functional
# Salmonella typhimurium = test: Antibacterial activity against Salmonella typhimurium assessed as inhibition of bacterial growth; format: functional, Salmonella enterica subsp. enterica serovar Typhimurium
smiles,measurement,setting,value
N#Cc1ccc2ccc(=O)n(CCN3CCC(NCc4ccc5c(c4)NC(=O)CS5(=O)=O)CC3)c2c1,MIC,Escherichia coli [1],> 16 µg/mL
same,MIC,Staphylococcus aureus [2],> 16 µg/mL
CN1C(=O)COc2ccc(CNC3CCN(CCn4c(=O)ccc5ccc(C#N)cc54)CC3)cc21,MIC,Escherichia coli [1],16 µg/mL
same,MIC,Staphylococcus aureus [2],8 µg/mL
N#Cc1ccc2ccc(=O)n(CCN3CCC(NCc4ccc5c(c4)OCC(C(=O)O)O5)CC3)c2c1 (centres undefined),MIC,Escherichia coli [1],> 16 µg/mL
same,MIC,Staphylococcus aureus [2],> 16 µg/mL
O=S1(=O)C=Cc2ccccc2N1CCN1CCC(NCc2cc3c(cn2)OCCC3)CC1,MIC,Escherichia coli [1],> 16 µg/mL
same,MIC,Staphylococcus aureus [2],> 16 µg/mL
O=c1ccc2ccc(C(F)(F)F)cc2n1CCN1CCC(NCc2cc3c(cn2)OCCC3)CC1,MIC,Escherichia coli [1],2 µg/mL
same,MIC,Staphylococcus aureus [2],0.125 µg/mL
O=S1(=O)c2ccccc2N(CCN2CCC(NCc3cc4c(cn3)OCCC4)CC2)c2ccccc21,MIC,Escherichia coli [1],> 16 µg/mL
same,MIC,Staphylococcus aureus [2],> 16 µg/mL
c1ccc2c(c1)c1ccccc1n2CCN1CCC(NCc2cc3c(cn2)OCCC3)CC1,MIC,Escherichia coli [1],> 16 µg/mL
same,MIC,Staphylococcus aureus [2],> 16 µg/mL
CN1C(=O)C(C)(C)Oc2ccc(CNC3CCN(CCn4c(=O)ccc5ccc(C#N)cc54)CC3)cc21,MIC,Escherichia coli [1],> 16 µg/mL
same,MIC,Staphylococcus aureus [2],> 16 µg/mL
N#Cc1ccc2ccc(=O)n(CCN3CCC(NCc4ccc5c(c4)NC(=O)CS5)CC3)c2c1,MIC,Staphylococcus aureus [3],0.03 µg/mL
same,MIC90,Staphylococcus aureus [3],0.125 µg/mL
same,Vd,[4],14 L/kg
same,MIC,Enterococcus faecalis [5],0.5 µg/mL
same,MIC90,Enterococcus faecalis [5],0.5 µg/mL
same,half-life,[6],2.5 h
same,MIC,Streptococcus pyogenes,0.15 µg/mL
same,MIC90,Streptococcus pyogenes,0.25 µg/mL
same,fraction unbound,[7],0.21
same,IC50,Topoisomerase IV,300 nM
same,inhibition (INH),Cytochrome P450 2C8,Not Active
same,MIC,Streptococcus pneumoniae,0.125 µg/mL
same,MIC90,Streptococcus pneumoniae,1 µg/mL
same,solubility,"[8]; aqueous medium, read-out: solubility",719 µg/mL
same,MIC,Haemophilus influenzae,2 µg/mL
same,inhibition (INH),Cytochrome P450 2D6,Not Active
same,MIC,Escherichia coli [1],< 0.125 µg/mL
same,Tmax,[9],3 h
same,inhibition (INH),Cytochrome P450 3A4,Not Active
same,MIC,Enterococcus faecalis [10],0.25 µg/mL
same,MIC90,Enterococcus faecalis [10],4 µg/mL
same,MIC,Salmonella enterica,1 µg/mL
same,MIC90,Klebsiella pneumoniae,16 µg/mL
same,clearance,[11],80 mL/min/kg
same,MIC,Staphylococcus aureus [2],< 0.125 µg/mL
same,AUC(0-t),[12],206 ng·h/mL
same,AUC(0-t),[13],110 ng·h/mL
same,MIC,Helicobacter pylori,< 0.06 µg/mL
same,MIC,Acinetobacter baumannii,0.125 µg/mL
same,MIC90,Acinetobacter baumannii,2 µg/mL
same,MRT,[14],3 h
same,IC50,DNA gyrase,3.2 nM
same,MIC,Staphylococcus aureus [15],0.016 µg/mL
same,MIC90,Staphylococcus aureus [15],0.125 µg/mL
same,MIC,Escherichia coli [16],0.125 µg/mL
same,MIC90,Escherichia coli [16],2 µg/mL
same,C0,[17],1210 ng/mL
same,MIC,Shigella flexneri,0.25 µg/mL
same,bioavailability,[18],18%
same,inhibition (INH),Cytochrome P450 1A2,Not Active
same,inhibition (INH),Cytochrome P450 2C19,Not Active
same,solubility,"[19]; PBS, read-out: solubility",611 µg/mL
same,MIC,Pseudomonas aeruginosa,0.125 µg/mL
same,MIC90,Pseudomonas aeruginosa,8 µg/mL
same,Cmax,[20],22 ng/mL
same,MIC,Enterococcus faecium,1 µg/mL
same,MIC90,Enterococcus faecium,1 µg/mL
same,MIC,Salmonella typhimurium,2 µg/mL
N#Cc1ccc2ccc(=O)n(CCN3CCC(NCc4ccc5c(c4)CCCC5)CC3)c2c1,MIC,Escherichia coli [1],1 µg/mL
same,MIC,Staphylococcus aureus [2],< 0.125 µg/mL
O=c1ccn2nccc2n1CCN1CCC(NCc2cc3c(cn2)OCCC3)CC1,MIC,Escherichia coli [1],8 µg/mL
same,MIC,Staphylococcus aureus [2],2 µg/mL
O=c1ccc2ccccc2n1CCN1CCC(NCc2cc3c(cn2)OCCC3)CC1,MIC,Escherichia coli [1],16 µg/mL
same,MIC,Staphylococcus aureus [2],1 µg/mL
O=c1c2ccccc2c2ccccc2n1CCN1CCC(NCc2cc3c(cn2)OCCC3)CC1,MIC,Escherichia coli [1],> 16 µg/mL
same,MIC,Staphylococcus aureus [2],1 µg/mL
O=c1ccc2ncc(=O)n3c2n1C[C@H]3CN1CCC(NCc2cc3c(cn2)OCCC3)CC1 [GEPOTIDACIN],Vd,[4],5 L/kg
same,half-life,[6],1.7 h
same,fraction unbound,[7],0.67
same,solubility,[8]; buffer,580 µg/mL
same,MIC,Escherichia coli [1],0.5 µg/mL
same,Tmax,[9],2 h
same,clearance,[11],60 mL/min/kg
same,MIC,Staphylococcus aureus [2],0.25 µg/mL
same,AUC(0-t),[12],244 ng·h/mL
same,AUC(0-t),[13],176 ng·h/mL
same,MIC90,Acinetobacter baumannii,64 µg/mL
same,MRT,[14],1.4 h
same,C0,[17],724 ng/mL
same,bioavailability,[18],24%
same,solubility,[19]; buffer,663 µg/mL
same,MIC90,Pseudomonas aeruginosa,32 µg/mL
same,Cmax,[20],90 ng/mL
